The source of these data is paper PMC10570359, “Dietary supplementation of cystinotic mice by lysine inhibits the megalin pathway and decreases kidney cystine content” (Scientific Reports, 2023).

For data set [1], the target named is T1, porcine megalin (Sus scrofa, UniProt C0HL13). Briefly: Surface plasmon resonance: competition for TC:B12 binding to chip-immobilized megalin. Conditions: for IC50: 10 µg/ml TC:B12 in 0 to 100 mM amino-acid, Biacore; for SPR signal of amino-acid alone on megalin chip: chips exposed to increasing concentrations of amino-acid, no analyte. Here is the method: (§1) To directly address whether supra-physiological concentrations of dibasic amino-acids (dAAs) can interfere with binding of protein ligands to megalin, we used surface plasmon resonance. Sensor chips were derivatized with porcine megalin at high density. […] After flushing, chips were incubated with 10 µg/ml of three analytes: the megalin chaperone, RAP (receptor-associated protein), as positive control (not shown), or two physiological megalin ligands: transcobalamine:cobalamine complexes (TC:B12; Fig. 1; sensorgrams shown at Supplemental Fig. 1a) or lysozyme (Supplemental Fig. 1b), diluted in 0 to 100 mM of the same amino-acids in buffer. […] The supraphysiological range for effective competition in vitro defined the necessary increment in urinary concentration from dietary supplementation for significant competition in vivo.
Figure 1 Acellular assay: direct competition for transcobalamine:cobalamine binding to megalin immobilized on Biacore sensor chips. Signals of sensorgrams (shown in Supplemental Fig. 1) were normalized to control signal without AA supplementation, taken as the unity, and are means ± SEM of at least four independent technical duplicate values at each of the indicated amino-acid-concentrations.
(§2) Surface plasmon resonance (SPR) analysis of the binding to chip-immobilized megalin of receptor-associated protein (RAP), transcobalamine:cobalamine complex (TC:B12) and lysozyme was carried out using a Biacore T200 instrument (Uppsala, Sweden). The sensor chips (type CM5) were activated with a 1:1 mixture of 0.2 M N-ethyl-N′-(3-dimethylaminopropyl) carbodiimide and 0.05 M N-hydroxysuccinimide in H2O. Porcine megalin[49] was immobilized on the chip in 10 mM sodium acetate, pH 4.0, and the remaining binding sites were blocked with 1 M ethanolamine, pH 8.5. The SPR signal generated from immobilized megalin were obtained with a density of 4.5 fmol protein/mm^2.
(§3) Human RAP was produced as recombinant protein in E. coli[50] and used to validate the sensor chip. TC was purified and complexed with B12 as described (TC/B12)[50],[51]. Human recombinant lysozyme was purchased from Sigma-Aldrich (expressed in rice, # L1667). Sensorgrams were generated using each of these three ligands at 10 µg/ml in a running buffer consisting of 10 mM Hepes, 150 mM NaCl, 4 mM CaCl2 and 0.05% Tween 20, pH 7.4. The flow cells were regenerated with 1 M ethanolamine pH 9.0. Analyte testing was performed as a dual injection starting with running buffer supplemented with the defined concentrations of amino acids followed by injection of analyte in the same solution. The pH of all buffers was adjusted after amino acids addition. All binding experiments were made as at least independent triplicate of technical duplicates and data were analyzed using the Biacore T200 evaluation software version 3.1.

The target of data set [2] is T1, porcine megalin. The data set can be described thus: Surface plasmon resonance: competition for lysozyme binding to chip-immobilized megalin. Conditions: 10 µg/ml lysozyme in 0 to 100 mM amino-acid. As to the method:
as §1, §2, §3

Data set [3] concerns megalin pathway. The data set can be described thus: LMW proteinuria (urinary CC16) in WT mice under 5x-dAA diets. The format is in vivo. Particulars: WT C57Bl-6 mice, 3 weeks diet, vs control diet. As to the method:
In a second experiment, 5x-D-lysine was compared to regular diet.
(§4) Body weight was recorded before entering the metabolic cages. […] Creatinine clearance was normalized by mouse body weight.

Data set [4] is described as follows: Clinical urine and serum analyses in Ctns KO mice under 5x-dAA diets. Conditions: Ctns KO mice at 8 months of age, 2 months of treatment, mean ± SEM.
Source text: We also attempted to further discriminate between luminal (competition for surface megalin binding) and intracellular metabolic effects (see Discussion) by comparing the effects of 5x-L-lysine to its stereoisomer, 5x-D-lysine. Unless stated otherwise, diets were initiated at 6 months-of-age, and mice were studied then euthanized at 8 months-of-age (2-months treatment). This time frame was selected for two reasons. First, in the mouse cystinosis model, this an appropriate window to evaluate the impact on PTC alterations based on changes in kidney cystine accumulation and overall function. […] Second, although primary prevention by earlier intervention (from 2-to-6 months-of-age) better mimics perinatal genetic megalin ablation, thus could be more efficient, secondary intervention (starting at 6 months-of-age), when disease becomes clinically apparent, is more relevant for further translational studies.
as §4

The nature of data set [5]: Urinary and serum amino-acid concentration by mass spectrometry in Ctns KO mice. The format is in vivo. Here is the method: as §4
Quantitative analysis of underivatized amino-acids in serum and urine samples was performed using the Amino Acids LC–MS/MS analysis Kit Jasem®. […] Equipment was controlled and data were analyzed using MassHunter Workstation (Agilent Technologies). The assay was validated for selectivity, specificity, linearity and limit of quantification, accuracy and precision, matrix effects and recovery, and stability.

In a further data set the test system is Ctns KO mice kidneys. Briefly: Kidney cystine content in Ctns KO mice. The format is in vivo. Particulars: diet from 6-to-8 months-of-age. Here is the method:
For this pilot study, we selected tissue accumulation of cystine as a clear and measurable outcome to quantify long-term interference of dAAs with the endocytic supply of disulfide-rich plasma proteins to kidney PTCs.
(§5) Mice were euthanized by cabon dioxide (CO2) inhalation. Dissected tissues were homogenized in 10 mM N-ethylmaleimide. Protein fraction was obtained after precipitation in 10% 5-sulfosalicylic acid and centrifugation at 20,000g for 20 min at 4 °C. Protein pellet was resuspended in 100 mM NaOH and assayed by the Bio-Rad Protein Assay according to manufacturer’s instructions. Supernatant (50 μl) was mixed with 50 μL of the internal standard solution (Cystine d6) and vortexed for 5 s; then the mixture was extracted with 200 μl of acetonitrile, vortexed for at least 30 s, then centrifuged at 13,000 rpm for 9 min. Liquid chromatography and mass spectrometry analysis was performed by a UHPLC Agilent 1290 Infinity II 6470 (Agilent Technologies) equipped with an ESI-JET-STREAM source operating in the positive ion (ESI +) mode. Equipment was controlled and data were analyzed using MassHunter Workstation (Agilent Technologies). The separation column was InfinityLab Poroshell 120 HILIC 1.9 μm 100 × 2.1 mm (Agilent Technologies). Validation of the method was performed basing on the US Food and Drug Administration (FDA) guideline for industry bioanalytical method validation (FDA 2013) and European Medicines Agency (EMA) guideline (EMA 2011). The assay was validated for selectivity, specificity, linearity and limit of quantification, accuracy and precision, matrix effects and recovery, and stability.

The test system of a further data set is Ctns KO mice liver. The data set can be described thus: Liver cystine content in Ctns KO mice. Particulars: diet from 6-to-8 months-of-age. It counts as in vivo. As to the method: In the second study to explore the effects of the D-lysine stereoisomer, Ctns KO mice received control vs 5x-D-lysine diet from 6-to-8 months-of-age. Mean kidney cystine value at 8 months-of-age under control diet was 109.4 ± 23.0 nmol hemi-cystine/mg kidney protein, slightly lower than in the first study.
as §5, with “The separation column was InfinityLab Poroshell 120 HILIC 1.9 μm 100 × 2.1 mm (Agilent Technologies). Validation of the method was performed basing on the US Food and Drug Administration (FDA) guideline for industry bioanalytical method validation (FDA 2013) and European Medicines Agency (EMA) guideline (EMA 2011).” left out

A short description of data set [6]: Tolerance of prolonged 5x-dAA diets in mice. Conditions: ad libitum 5x-supplemented solid diet, approx. 45 mmoles/kg/day.
Source text: Ctns knockout mice (C57BL/6 background) were kindly provided by Dr. Corinne Antignac[18]. […] The same increase was set for L- (and D-) lysine.
Data set [7] relates to megalin pathway. Briefly: LMW proteinuria / albuminuria in Ctns KO mice under 5x-dAA diets.
Protocol: After 24-h adaptation in metabolic cages, urine was collected during the following 24 h in presence of 0.1% sodium azide and 1x-protease inhibitors (Thermo Scientific). When in metabolic cages, mice had free access to tap water and food. Blood was collected 2 days before starting the treatments and entry into metabolic cages (baseline) and at the sacrifice to obtain serum. Body weight was recorded before entering the metabolic cages. Urine and serum analyses were performed by the veterinary laboratory Appialab Srl (Rome, Italy). Urinary levels of CC16 were measured by the Mouse Clara Cell Protein 16 kit 96 T #EKU03200 (Biomatik) according to manufacturer’s instructions. Serum levels of cystatin-C were measured by the Mouse/Rat Cystatin C Quantitative ELISA #MSCTC0 (R&D Systems). […] Creatinine clearance was normalized by mouse body weight.
Setting [8] is: read-out: IC50 for TC:B12/megalin interaction (mM; 95%CI).
Setting [9] is: Ctns KO mice at 8 months of age, 24-h urine, mean ± SEM.
Setting [10] is: Ctns KO mice at 8 months of age, 2 months of treatment, urine, mean ± SEM.
[11] abbreviates: IC50 for TC:B12/megalin interaction (mM; 95%CI).

Read-outs that look alike come from different tables or passages of the source.

T1 sequence (C0HL13 26-4652): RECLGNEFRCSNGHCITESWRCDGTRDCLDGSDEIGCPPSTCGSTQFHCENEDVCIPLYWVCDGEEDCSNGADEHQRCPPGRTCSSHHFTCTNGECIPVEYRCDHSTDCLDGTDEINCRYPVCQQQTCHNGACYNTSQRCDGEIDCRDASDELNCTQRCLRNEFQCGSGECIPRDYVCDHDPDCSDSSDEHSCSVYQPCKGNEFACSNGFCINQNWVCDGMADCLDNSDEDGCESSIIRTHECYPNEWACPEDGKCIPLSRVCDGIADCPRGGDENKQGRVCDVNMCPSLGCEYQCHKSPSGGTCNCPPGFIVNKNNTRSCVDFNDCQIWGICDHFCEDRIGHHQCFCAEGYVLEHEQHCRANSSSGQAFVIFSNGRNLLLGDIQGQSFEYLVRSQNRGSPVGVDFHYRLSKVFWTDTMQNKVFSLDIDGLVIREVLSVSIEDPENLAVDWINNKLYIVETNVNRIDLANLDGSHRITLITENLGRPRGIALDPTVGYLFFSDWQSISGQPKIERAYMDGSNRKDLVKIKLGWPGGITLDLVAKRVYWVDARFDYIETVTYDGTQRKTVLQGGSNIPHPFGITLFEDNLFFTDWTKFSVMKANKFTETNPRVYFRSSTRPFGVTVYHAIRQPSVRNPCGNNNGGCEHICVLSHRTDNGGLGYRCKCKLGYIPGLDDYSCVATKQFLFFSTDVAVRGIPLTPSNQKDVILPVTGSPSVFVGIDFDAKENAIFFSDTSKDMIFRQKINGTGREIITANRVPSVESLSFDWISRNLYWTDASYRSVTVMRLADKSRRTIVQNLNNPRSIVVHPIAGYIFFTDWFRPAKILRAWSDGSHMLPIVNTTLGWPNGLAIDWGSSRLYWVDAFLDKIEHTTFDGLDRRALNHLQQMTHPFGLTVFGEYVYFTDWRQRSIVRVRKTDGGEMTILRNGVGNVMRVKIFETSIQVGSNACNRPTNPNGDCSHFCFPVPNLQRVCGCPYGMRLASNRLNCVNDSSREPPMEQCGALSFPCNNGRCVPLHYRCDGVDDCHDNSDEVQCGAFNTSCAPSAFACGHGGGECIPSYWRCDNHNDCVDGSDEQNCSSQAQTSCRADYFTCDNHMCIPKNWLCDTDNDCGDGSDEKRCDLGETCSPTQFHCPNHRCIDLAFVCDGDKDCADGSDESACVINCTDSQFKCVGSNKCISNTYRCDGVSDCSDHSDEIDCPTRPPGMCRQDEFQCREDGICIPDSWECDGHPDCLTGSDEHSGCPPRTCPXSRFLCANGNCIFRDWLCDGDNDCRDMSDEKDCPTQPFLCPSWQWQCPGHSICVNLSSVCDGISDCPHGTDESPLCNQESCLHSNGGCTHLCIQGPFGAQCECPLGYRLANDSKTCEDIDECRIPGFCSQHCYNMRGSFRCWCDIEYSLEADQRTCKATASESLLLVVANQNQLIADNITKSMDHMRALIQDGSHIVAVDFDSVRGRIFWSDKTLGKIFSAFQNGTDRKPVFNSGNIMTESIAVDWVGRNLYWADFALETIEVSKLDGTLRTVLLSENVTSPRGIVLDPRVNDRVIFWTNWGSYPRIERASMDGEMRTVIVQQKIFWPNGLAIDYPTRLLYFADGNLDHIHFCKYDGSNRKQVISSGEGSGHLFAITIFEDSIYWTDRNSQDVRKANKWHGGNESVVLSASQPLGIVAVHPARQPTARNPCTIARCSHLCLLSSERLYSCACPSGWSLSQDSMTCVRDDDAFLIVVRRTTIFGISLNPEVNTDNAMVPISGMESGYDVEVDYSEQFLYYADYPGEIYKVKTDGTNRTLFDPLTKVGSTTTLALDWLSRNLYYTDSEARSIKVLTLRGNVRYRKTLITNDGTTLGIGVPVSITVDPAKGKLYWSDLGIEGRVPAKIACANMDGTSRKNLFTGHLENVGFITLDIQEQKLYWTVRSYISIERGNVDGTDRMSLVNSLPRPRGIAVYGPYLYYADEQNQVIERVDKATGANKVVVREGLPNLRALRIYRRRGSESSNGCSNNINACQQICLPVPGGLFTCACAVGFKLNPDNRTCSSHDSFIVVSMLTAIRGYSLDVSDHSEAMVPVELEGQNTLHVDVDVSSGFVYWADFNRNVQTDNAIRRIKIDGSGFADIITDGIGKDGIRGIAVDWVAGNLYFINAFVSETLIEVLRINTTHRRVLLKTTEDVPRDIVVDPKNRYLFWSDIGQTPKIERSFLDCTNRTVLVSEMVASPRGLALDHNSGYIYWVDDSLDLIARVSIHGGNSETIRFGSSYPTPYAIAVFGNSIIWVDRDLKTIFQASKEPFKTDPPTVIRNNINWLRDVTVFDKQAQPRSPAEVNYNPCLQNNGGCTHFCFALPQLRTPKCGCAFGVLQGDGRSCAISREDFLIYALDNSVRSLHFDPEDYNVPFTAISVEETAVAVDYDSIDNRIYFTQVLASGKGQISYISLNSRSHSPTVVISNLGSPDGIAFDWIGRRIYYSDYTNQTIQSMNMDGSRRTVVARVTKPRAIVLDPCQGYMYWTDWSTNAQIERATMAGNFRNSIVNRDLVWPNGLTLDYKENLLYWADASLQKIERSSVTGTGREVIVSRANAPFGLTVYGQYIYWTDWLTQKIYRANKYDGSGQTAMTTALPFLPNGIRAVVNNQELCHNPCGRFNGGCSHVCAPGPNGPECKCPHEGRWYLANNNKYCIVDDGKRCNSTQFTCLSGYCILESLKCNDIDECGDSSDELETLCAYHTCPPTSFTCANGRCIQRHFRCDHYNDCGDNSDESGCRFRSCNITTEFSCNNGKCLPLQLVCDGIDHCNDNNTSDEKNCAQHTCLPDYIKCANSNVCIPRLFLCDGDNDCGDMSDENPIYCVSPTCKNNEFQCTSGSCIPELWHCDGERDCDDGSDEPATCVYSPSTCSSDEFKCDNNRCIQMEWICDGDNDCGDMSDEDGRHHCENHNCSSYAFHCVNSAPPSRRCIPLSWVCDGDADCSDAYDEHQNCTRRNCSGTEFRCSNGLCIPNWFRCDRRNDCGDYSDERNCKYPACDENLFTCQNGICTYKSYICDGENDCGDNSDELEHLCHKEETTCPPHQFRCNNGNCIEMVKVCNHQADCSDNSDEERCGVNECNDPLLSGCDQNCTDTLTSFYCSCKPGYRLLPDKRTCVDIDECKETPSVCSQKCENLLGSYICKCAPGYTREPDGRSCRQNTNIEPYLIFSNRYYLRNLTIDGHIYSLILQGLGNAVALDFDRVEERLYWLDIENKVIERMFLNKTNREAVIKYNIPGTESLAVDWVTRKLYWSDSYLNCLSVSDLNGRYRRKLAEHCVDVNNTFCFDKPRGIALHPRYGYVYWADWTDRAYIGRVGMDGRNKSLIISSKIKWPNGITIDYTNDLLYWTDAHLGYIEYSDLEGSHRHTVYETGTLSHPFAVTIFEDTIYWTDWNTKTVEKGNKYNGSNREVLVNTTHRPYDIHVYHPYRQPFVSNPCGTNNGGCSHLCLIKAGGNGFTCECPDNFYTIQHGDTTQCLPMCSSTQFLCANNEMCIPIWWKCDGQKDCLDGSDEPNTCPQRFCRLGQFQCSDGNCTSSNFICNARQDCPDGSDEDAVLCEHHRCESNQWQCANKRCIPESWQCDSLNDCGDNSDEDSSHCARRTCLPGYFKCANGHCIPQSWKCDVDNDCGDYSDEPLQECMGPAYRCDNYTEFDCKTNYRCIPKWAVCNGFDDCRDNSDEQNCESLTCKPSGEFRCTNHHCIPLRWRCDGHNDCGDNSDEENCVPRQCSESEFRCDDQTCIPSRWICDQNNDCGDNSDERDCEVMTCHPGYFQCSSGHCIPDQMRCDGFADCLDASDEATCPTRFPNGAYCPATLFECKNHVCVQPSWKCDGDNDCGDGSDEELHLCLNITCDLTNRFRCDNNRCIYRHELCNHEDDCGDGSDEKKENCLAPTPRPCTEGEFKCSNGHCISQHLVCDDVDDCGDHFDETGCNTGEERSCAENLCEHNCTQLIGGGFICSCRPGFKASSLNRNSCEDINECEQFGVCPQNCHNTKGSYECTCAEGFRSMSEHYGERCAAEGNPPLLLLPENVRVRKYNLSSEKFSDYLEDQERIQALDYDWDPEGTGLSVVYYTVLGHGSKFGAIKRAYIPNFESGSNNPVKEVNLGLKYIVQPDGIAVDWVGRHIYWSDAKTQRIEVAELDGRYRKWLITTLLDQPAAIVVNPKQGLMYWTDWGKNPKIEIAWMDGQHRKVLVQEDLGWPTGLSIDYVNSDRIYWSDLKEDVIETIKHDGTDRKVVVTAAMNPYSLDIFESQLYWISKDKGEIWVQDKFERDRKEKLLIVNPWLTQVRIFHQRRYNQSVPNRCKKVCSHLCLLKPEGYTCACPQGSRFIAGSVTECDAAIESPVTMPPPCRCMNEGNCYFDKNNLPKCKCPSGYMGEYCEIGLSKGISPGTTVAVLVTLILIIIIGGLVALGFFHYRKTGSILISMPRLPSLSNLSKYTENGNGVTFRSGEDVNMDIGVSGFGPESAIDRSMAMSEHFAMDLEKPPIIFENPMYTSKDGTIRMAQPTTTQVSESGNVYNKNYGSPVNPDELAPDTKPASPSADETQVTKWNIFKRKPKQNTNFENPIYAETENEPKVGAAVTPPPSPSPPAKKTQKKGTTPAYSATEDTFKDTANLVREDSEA

Take `NCCCC[C@@H](N)C(=O)O` [5x-D-lysine, D-lysine]: on porcine megalin [1] (setting [8]), the IC50 stood at 22 mM. For the same compound, on porcine megalin [1], the “SPR signal of amino-acid alone on megalin chip” value (from here on “SPR signal of amino-acid alone”) was “no signal was detected”. Also, the “effect on megalin binding of lysozyme” value at porcine megalin [2] is recorded as “concentration-dependent decrease”. Further, the “increase of urinary excretion of CC16 (normalized for creatinine excretion)” value in the data set on megalin pathway [3] stood at 20 fold. Further, in data set [4], the Body weight is recorded as 22.4 ± 0.3 g. Also, in data set [4] (serum), the Serum creatinine amounted to 0.8 ± 0.1 mg/dL, the “Serum cystatin-C” value came out at 723.3 ± 32.7 ng/mL, the Serum glucose was determined as 172.4 ± 7.9 mg/dL and the Serum phosphate stood at 9.5 ± 0.4 mg/dL. This compound showed a Serum urea in data set [4] (serum) of 43.2 ± 2.0 mg/dL. In data set [4] (urine), this compound showed a Daily creatinine output of 0.7 ± 0.1 mg/day, a Diuresis of 5.3 ± 0.8 mL/day, a Urine creatinine of 13.4 ± 1.2 mg/dL and a Urine glucose/creatinine of 54.4 ± 4.5 g/g. Also, in [4] (urine), the Urine phosphate/creatinine was determined as 4.8 ± 0.4 g/g and the Urine urea/creatinine turned out to be 181.8 ± 11.6 g/g. In data set [5] (setting [9]), the Urinary alanine is 1097 ± 106.5 mM/M creatinine, the Urinary arginine was 265 ± 27.5 mM/M creatinine, the Urinary cystine was 481.6 ± 32.8 mM/M creatinine and the Urinary glycine amounted to 1066 ± 162 mM/M creatinine. The Urinary lysine in data set [5] (setting [9]) is on record as 123,851 ± 8548 mM/M creatinine. The “urinary lysine concentration reached” value in [5] (Ctns KO mice, daily urine collections) was ~ 150 mM. Besides, in [5] (Ctns KO mice, vs control diet), the increase of argininuria came to 12 fold, the increase of cystinuria stood at 7 fold and the increase of lysinuria amounted to 2200 fold. For the same compound, in the data set with Ctns KO mice kidneys (Ctns KO female mice), the “mean kidney cystine at 8 months-of-age” value is 44.6 ± 10.8 nmol hemi-cystine/mg kidney protein. Further, in the data set with Ctns KO mice kidneys (Ctns KO mice), the “kidney cystine accumulation during the treatment period” value is “probably fully arrested”. In the data set on Ctns KO mice liver, the “liver cystine level at 8 months-of-age” value is on record as “did not affect”. Moreover, in data set [6], the “tolerance of prolonged diet” value was “strong polyuria but no weight loss”. Moreover, the “increase of microalbuminuria vs control diet” value in the data set with megalin pathway [7] (Ctns KO female mice, diet from 6-to-8 months of age) is listed as “> twofold”. Moreover, in the data set with megalin pathway [7] (setting [10]), the “Urine CC16/creatinine” value was 18,257 ± 1488 μg/g and the Urine microalbumin/creatinine is reported as 0.5 ± 0.2 (n = 8) mg/g.
As to `N=C(N)NCCC[C@H](N)C(=O)O` [arginine], the IC50 on porcine megalin [1] (setting [11]) was roughly 60 mM.
In turn, `NCCCC[C@H](N)C(=O)O` [lysine] registered an IC50 at porcine megalin [1] (setting [11]) of roughly 25 mM.
For `NC(N)=NCCC[C@@H](N)C(=O)O` [5x-D-arginine, D-arginine], the IC50 on porcine megalin [1] (setting [8]) is 60 mM. The “SPR signal of amino-acid alone” value at porcine megalin [1] was “no signal was detected”. Moreover, at porcine megalin [2], the “effect on megalin binding of lysozyme” value is listed as “concentration-dependent decrease”. Further, the “tolerance of prolonged diet” value in data set [6] is “weight loss and eventual high mortality”.
`NCC(=O)O` [glycine]: the “SPR signal of amino-acid alone” value at porcine megalin [1] is “no signal was detected”. For the same compound, the “effect on megalin:TC:B12 interaction” value at porcine megalin [1] (up to 100 mM) was “No detectable effect”. For the same compound, the “effect on megalin binding of lysozyme” value at porcine megalin [2] was “No detectable effect”.
